Reference: patent publication US20090253720A1, “ANTIFOLATE COMPOSITIONS” (Chelsea Therapeutics, Inc., priority 2008, published 2009)
Where “and” joins values, the source holds several entries; their conditions need not be identical. Equal values may be shown once. Each block holds one molecule with its values, some of them ahead of it.

Experiments:
[1] = Comparative dissolution in 0.1N hydrochloric acid, USP dissolution apparatus with HPLC (FIG. 2, FIG. 3); type: physicochemical
Protocol: The percent dissolution for both compounds in 0.1N hydrochloric acid as a function of time was evaluated using a standard USP dissolution apparatus and high performance liquid chromatography (HPLC) test equipment. […] This is particularly relevant in the case of pharmaceutical compositions of the invention for oral delivery, wherein the composition will encounter an acidic environment, such as in the stomach. Greater solubility of the sodium salt compound indicates a greater amount of the active compound will be available for absorption.
Such improved solubility is illustrated in FIG. 3, wherein the comparative dissolution of an antifolate compound is given as the percent dissolution as a function of time. The antifolate compound was tested in the diacid form (denoted as “CH-1504 free acid”), in the sodium salt form (denoted as “CH-1504 sodium salt”), and as the sodium salt form in a pharmaceutical composition according to the invention including […]® 44/14 (denoted as “CH-1504 formulation”). Dissolution was tested using 0.1N hydrochloric acid. […] The inventive formulation achieved 90% dissolution by 30 minutes and 100% dissolution by 45 minutes. After 90 minutes, the salt alone and the diacid alone achieved only about 75% dissolution and about 50% dissolution, respectively.

[2] = molecular target: T1, reduced folate carrier (RFC) (Homo sapiens, UniProt P41440); experiment: [3H]MTX transport inhibition in intact CCRF-CEM human T-cell leukemia cells; type: cell-based; conditions: 2 μM [3H]MTX, 37°, 5 min uptake
T1 construct: endogenous in cells; host or cells: CCRF-CEM human T-cell leukemia cells
T1 sequence (P41440 1-591): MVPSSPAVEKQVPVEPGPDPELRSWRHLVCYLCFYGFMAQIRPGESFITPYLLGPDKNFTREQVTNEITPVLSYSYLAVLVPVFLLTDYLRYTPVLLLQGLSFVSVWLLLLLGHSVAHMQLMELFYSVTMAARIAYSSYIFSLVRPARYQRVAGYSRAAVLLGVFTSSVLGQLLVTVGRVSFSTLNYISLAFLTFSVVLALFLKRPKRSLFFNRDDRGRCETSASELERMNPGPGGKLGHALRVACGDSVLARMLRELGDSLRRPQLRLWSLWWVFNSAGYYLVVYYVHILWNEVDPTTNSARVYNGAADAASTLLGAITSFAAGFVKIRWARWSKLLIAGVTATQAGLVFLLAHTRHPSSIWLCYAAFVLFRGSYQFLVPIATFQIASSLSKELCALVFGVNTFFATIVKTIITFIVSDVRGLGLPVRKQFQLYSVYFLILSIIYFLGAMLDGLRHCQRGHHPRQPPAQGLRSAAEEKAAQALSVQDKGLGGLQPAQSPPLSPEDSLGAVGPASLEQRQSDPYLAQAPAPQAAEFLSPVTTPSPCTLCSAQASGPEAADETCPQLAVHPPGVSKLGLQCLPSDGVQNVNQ
Protocol: Transport of 2 μM [^3H]MTX (methotrexate) at 37° by intact CCRF-CEM human T-cell leukemia was assayed by a micro-method utilizing repeated iced saline washes to remove extracellular drug. Such method is disclosed in McGuire J J, et al., Cancer Res 1989; 49:4517-25 and McGuire J J, et al., Cancer Res 2006; 66:3836-44, both of which are incorporated herein by reference in their entirety. The washed cell pellets were solubilized in 1 ml of 0.3% Triton X-100 at 37° C. for 1 hour before transfer to scintillation vials; 10 ml Ecoscint liquid scintillation fluid (National Diagnostics, Atlanta, Ga.) was added and radioactivity was quantitated in a Beckman LS6500 scintillation counter. […] Uptake was initiated by addition of 200 μL of cells at ≈2.5×10^7 cells/ml and 2 aliquots (100 μL) were removed to iced saline and processed at 5 min. Adventitious [^3H]MTX binding was determined at 0° C. by adding 200 μl of cells to 25 μl of PBS in a tube and cooling to 0° C. in ice for ≧5 min; following addition of 25 μl of [^3H]MTX to achieve a final concentration of 2 μM, 2 aliquots (100 μL) were immediately removed to iced saline and processed.
Analytical HPLC was performed on a Rainin Instruments HPLC system using the Dynamax controller and data capture module run on a Macintosh computer, such as described in McGuire J J, et al., J Biol Chem 1990; 265:14073-9, which is incorporated herein by reference in its entirety. C18 reversed-phase (0.4×25 cm; Rainin Microsorb, 5μ) HPLC was performed at 25° C. Detection was by absorbance at 280 and/or 254 nm. For MTX (tr, ≈31.6 min) and 7-OH-MTX (tr, ≈35.2 min) the gradient was from 4-13% ACN in 0.1 M Na-acetate, pH 5.5 over 41 min at 1 ml/min.

[3] = Pharmacokinetics of a single oral dose in a healthy subject; conditions: human, in vivo
Protocol: The pharmacokinetic parameters of a single oral dose of the antifolate compound according to the invention were evaluated. In Comparative Examples 2-7, 1 to 20 mg of an antifolate compound according to Formula (9) was administered in the racemic free acid form (i.e., not as part of a pharmaceutical formulation). The drug product was supplied as powder-filled gelatin capsules in three active strengths (1.0 mg, 2.5 mg. and 5.0 mg) with each capsule including enough microcrystalline cellulose to bring the total capsule weight to 288 mg. […] In Examples 2-8, the test material was administered to a healthy subject, and blood samples were taken before dosing and at 0.5, 1, 1.5, 2, 2.5, 3, 3.5, 4, 5, 6, 8, 10, 12, 16, 24, and 48 hours after dosing. The calculated pharmacokinetic values observed are provided below in Table 3.
In Table 3, Cmax is the maximum measured plasma concentration of the antifolate compound administered and tmax is the time to Cmax. […] Thus, the pharmaceutical formulations of the present invention allow for greatly reducing the amount of antifolate compound that is administered to a subject while actually increasing the amount of the compound that is available for therapeutic action.

[4] = Comparative dissolution with cyclodextrin formulation (FIG. 4); type: physicochemical; conditions: 45 minutes
Excerpt: Compositions according to the invention using cyclodextrins have also shown similarly beneficial results. The improved solubility of the inventive compositions comprising an antifolate compound and a cyclodextrin is illustrated in FIG. 4, wherein the comparative dissolution of an antifolate compound is again given as a percent dissolution as a function of time. The antifolate compound was again tested in the diacid form (denoted as “Free acid”), in the sodium salt form (denoted as “Disodium salt”), and as the sodium salt form in a pharmaceutical composition according to the invention including a cyclodextrin (denoted as “Cyclodextrin formulation”). […] The inventive formulation approached 100% dissolution within 30 minutes. After 45 minutes, the salt alone and the diacid alone achieved only about 70% dissolution and about 45% dissolution, respectively.

[5] = Protocol: A salt screen of this compound was conducted with various pharmaceutically acceptable counterions to analyze aqueous solubility of the formed salts. Formed solids suspected of forming salts were analyzed by X-ray powder diffraction (XRPD).
[6] = Hygroscopicity study of salts at 75% relative humidity for five days; type: physicochemical
Excerpt: Hygroscopicity and approximate solubility in aqueous and buffered solutions of ammonium, besylate, calcium, esylate, sulfate, HCl, mesylate, napsylate, potassium, disodium, and tosylate salts were compared. In the hygroscopicity study, the salts were subjected to 75% relative humidity for five days.

[7] = Plasma concentration after oral L- or D-CH-1504 in non-fasted rats (Example 14); type: in vivo; conditions: individual animals; for Plasma conc. of D-CH-1504 / Plasma conc. of L-CH-1504: non-fasted female Lewis rats
Protocol: L- or D-CH-1504 was administered once orally to non-fasted female Lewis rats at a dose of 10 mg/kg (vehicle: 0.11% carboxymethylcellulose/0.45% TWEEN 80, formulation: suspension). About 750 μL of blood was collected from the jugular vein at 1 and 3 hours after administration. And then, whole of blood was collected from the femoral vein under diethyl ether anesthesia at 6 hours after administration. The collected blood was immediately centrifuged to obtain a plasma sample. L- and D-CH-1504 were extracted from the plasma by solid-phase extraction and were then determined with a LC/MS/MS.

CCRF-CEM cells = experiment: Growth inhibition of CCRF-CEM cells by continuous (120 hr) drug exposure; type: cell-based, human; conditions: continuous 120 hr exposure
Protocol: The human T-lymphoblastic leukemia cell line CCRF-CEM (described in Foley G F, et al., Cancer 1965; 18:522-9) was cultured as described in McCloskey D E, et al., J Biol Chem 1991; 266:6181-7 (both of which are incorporated herein by reference in their entirety) and verified to be negative for Mycoplasma contamination (Mycoplasma Plus PCR primers, Stratagene, La Jolla, Calif.).

Compound: Nc1nc(N)c2nc(CNc3ccc(C(=O)N[C@@H](CCC(=O)O)C(=O)O)cc3)cnc2n1 [Aminopterin, reference compound]
IC50 [2]: 1500 nM

Compound: Cc1ccc(S(=O)(=O)O)cc1.Cn1cc(-c2ccc3nnc(C(F)(F)c4ccc5ncccc5c4)n3n2)cn1 [tosylate salt]
hygroscopicity study outcome [6]: Tacky or gummy solids or solids not exhibiting birefringence and extinction

Further lines, with some results ahead:

percent dissolution ([1]; FIG. 2, 45 minutes): 45% | percent dissolution ([1]; FIG. 3, 15 minutes): approximately 35% | percent dissolution ([1]; FIG. 3, 90 minutes): about 50% | IC50 [2]: 1700 nM | AUC(0-inf) ([3]; 1 mg): 1.52 ng·h/mL | AUC(0-t) ([3]; 1 mg): 1.25 ng·h/mL | Cmax ([3]; 1 mg): 0.69 ng/mL | Tmax ([3]; 1 mg): 2.26 h | half-life ([3]; 1 mg): 0.99 h | AUC(0-inf) ([3]; 5 mg): 9.58 ng·h/mL | AUC(0-t) ([3]; 5 mg): 8.92 ng·h/mL | Cmax ([3]; 5 mg): 2.65 ng/mL | Tmax ([3]; 5 mg): 1.26 h | half-life ([3]; 5 mg): 3.21 h | AUC(0-inf) ([3]; 7.5 mg): 7.47 ng·h/mL | AUC(0-t) ([3]; 7.5 mg): 6.63 ng·h/mL | Cmax ([3]; 7.5 mg): 2.05 ng/mL | Tmax ([3]; 7.5 mg): 1.5 h | half-life ([3]; 7.5 mg): 2.71 h | AUC(0-inf) ([3]; 10 mg): 26 ng·h/mL | AUC(0-t) ([3]; 10 mg): 25.2 ng·h/mL | Cmax ([3]; 10 mg): 6 ng/mL | Tmax ([3]; 10 mg): 2.01 h | half-life ([3]; 10 mg): 3.13 h | AUC(0-inf) ([3]; 15 mg): 25.9 ng·h/mL | AUC(0-t) ([3]; 15 mg): 25 ng·h/mL | Cmax ([3]; 15 mg): 6.57 ng/mL | Tmax ([3]; 15 mg): 2.25 h | half-life ([3]; 15 mg): 3.2 h | AUC(0-inf) ([3]; 20 mg): 35.6 ng·h/mL | AUC(0-t) ([3]; 20 mg): 34.6 ng·h/mL | Cmax ([3]; 20 mg): 7.83 ng/mL | Tmax ([3]; 20 mg): 2.25 h | half-life ([3]; 20 mg): 3.91 h | percent dissolution [4]: about 45% | solubility (in words) [5]: poor solubility
Compound: C=C(CC(NC(=O)c1ccc(CCc2ccc3nc(N)nc(N)c3c2)cc1)C(=O)O)C(=O)O (racemic) [CH-1504, 2-{4-[2-(2,4-diamino-quinazolin-6-yl)-ethyl]-benzoylamino}-4-methylene-pentanedioic acid]

IC50 [2]: 1100 nM | Plasma conc. of L-CH-1504 ([7]; 1 h after 10 mg/kg oral): 139 ng/mL and 118 ng/mL | Plasma conc. of L-CH-1504 ([7]; 3 h after 10 mg/kg oral): 36.8 ng/mL and 59.7 ng/mL | Plasma conc. of L-CH-1504 ([7]; 6 h after 10 mg/kg oral): 22.2 ng/mL and 21.7 ng/mL | concentration at 1 h ([7]; female, Lewis, rat, plasma, oral, 10 mg/kg, 1 h after 10 mg/kg oral, read-out: Plasma conc. of L-CH-1504): 144 ng/mL | concentration at 3 h ([7]; female, Lewis, rat, plasma, oral, 10 mg/kg, 3 h after 10 mg/kg oral, read-out: Plasma conc. of L-CH-1504): 61.9 ng/mL | concentration at 6 h ([7]; female, Lewis, rat, plasma, oral, 10 mg/kg, 6 h after 10 mg/kg oral, read-out: Plasma conc. of L-CH-1504): 22.7 ng/mL
Compound: C=C(C[C@H](NC(=O)c1ccc(CCc2ccc3nc(N)nc(N)c3c2)cc1)C(=O)O)C(=O)O [L-CH-1504, (S)-2-{4-[2-(2,4-diamino-quinazolin-6-yl)-ethyl]-benzoylamino}-4-methylene-pentanedioic acid]
Plasma conc. of D-CH-1504 ([7]; 1 h after 10 mg/kg oral): BLQ (Below limit of quantification (<0.500 ng/mL)) | Plasma conc. of D-CH-1504 ([7]; 3 h after 10 mg/kg oral): BLQ (Below limit of quantification (<0.500 ng/mL)) | Plasma conc. of D-CH-1504 ([7]; 6 h after 10 mg/kg oral): BLQ (Below limit of quantification (<0.500 ng/mL))

EC50 (CCRF-CEM cells): 29 nM | IC50 [2]: 7600 nM | Plasma conc. of D-CH-1504 ([7]; 1 h after 10 mg/kg oral): 31.5 ng/mL and 20.5 ng/mL and 11.0 ng/mL | Plasma conc. of D-CH-1504 ([7]; 3 h after 10 mg/kg oral): 14.3 ng/mL and 9.44 ng/mL and 8.93 ng/mL | Plasma conc. of D-CH-1504 ([7]; 6 h after 10 mg/kg oral): 8.34 ng/mL and 13.6 ng/mL and 8.01 ng/mL
Compound: C=C(C[C@@H](NC(=O)c1ccc(CCc2ccc3nc(N)nc(N)c3c2)cc1)C(=O)O)C(=O)O [D-CH-1504]
Plasma conc. of L-CH-1504 ([7]; 1 h after 10 mg/kg oral): 0.895 ng/mL and BLQ (Below limit of quantification (<0.500 ng/mL)) (2×) | Plasma conc. of L-CH-1504 ([7]; 3 h after 10 mg/kg oral): BLQ (Below limit of quantification (<0.500 ng/mL)) | Plasma conc. of L-CH-1504 ([7]; 6 h after 10 mg/kg oral): BLQ (Below limit of quantification (<0.500 ng/mL))
